Reference: patent US20020188026A1, “Methods of sterilizing with dipercarboxylic acids” (Lynntech, Inc., priority 2000, published 2002)
Values joined by “and” are separate entries in the source; they are usually repeats but may differ in a detail not shown here. Equal values may be shown once.

What was measured:
[1] = Crude estimate of solubility in water; assay type: physicochemical; conditions: crude experiment, estimated
Text: A crude experiment was done to first estimate the solubility in water of diperglutaric acid (C5), dipersuberic acid (C8), and dipersebacic acid (C10) prepared in accordance with Example 1. It was estimated that the limit of solubility of these peracids in water was 10%, 0.8%, and 0.1% wt/v for diperglutaric, dipersuberic, and dipersebacic, respectively.

Escherichia coli = test: Zone of inhibition test; assay type: cell-based; conditions: E. coli, 20 μL on 6 mm disc, duplicate experiments
Method: (§1) Zone of inhibition tests are qualitative screens for the inhibitory effect of the compound being tested. Clear zones created by a compound on a bacterial lawn indicates bacteriostatic ability and possible bactericidal capability and the size of the zone of inhibition is a semi-qualitative measure of the strength of the compound. The procedure involved creating lawns of bacteria by spreading 100 μL of broth culture evenly on nutrient agar plates. The bacteria were drawn from broth cultures that had recently reached maximum density. The organisms were Staphylococcus aureus, Psuedomonas aeruginosa, and Escherichia coli. Sterile, 6 mm, white paper discs were placed in the middle of each bacterial lawn. 20 μL of treatment were dispensed onto the surface of each disc. The treatments were: 1.0% and 0.033% diperglutaric acid, 1.0% glutaric acid in water. Each treatment was performed in duplicate for each organism. The plates were incubated at 37° C. for 18-24 hours. All zones were then measured in millimeters across the diameter of the zone of inhibition.

Psuedomonas aeruginosa = test: Zone of inhibition test; assay type: cell-based; conditions: P. aeruginosa, 20 μL on 6 mm disc, duplicate experiments
Method: as §1

Staphylococcus aureus = test: Zone of inhibition test; assay type: cell-based; conditions: S. aureus, 20 μL on 6 mm disc, duplicate experiments
Method: as §1

E. coli = test: Biopsy punch enumeration; assay type: cell-based; conditions: 1% treatment
Method: (§2) Biopsy punch enumeration is an extension of the zone of inhibition test, which involves enumerating organisms on the surface or within a removed core (punch). This test provides a quantitative analysis of the viable organisms remaining after treatment. This procedure was carried out exactly the same as the zone of inhibition testing. After incubation, however, the disc was removed from the plate and a 6-mm core was taken with a sterile, disposable biopsy punch precisely in the location where the disc had been removed. The same three organisms were used and the following treatments were sampled in duplicate: 1.0% diperglutaric acid and 1.0% glutaric acid in water. The core of each plate was aseptically placed in a microcentrifuge tube with 1 ml of sterile 0.85% saline solution and placed on a vortex for 5 minutes. These samples were diluted and plated in duplicate on nutrient agar and allowed to incubate at 37° C. for 18-24 hours for enumeration.

P. aeruginosa = test: Biopsy punch enumeration; assay type: cell-based; conditions: 1% treatment
Method: as §2

S. aureus = test: Biopsy punch enumeration; assay type: cell-based; conditions: 1% treatment
Method: as §2

Bacillus subtilis spores = test: Sporicidal testing, spores heat fixed to glass slides; assay type: cell-based; conditions: for Log10 post-disinfection count (cfu/coupon): pre-disinfection 6.69
Method: Additional spore testing experiments were done with diperglutaric acid. In this example, the diperglutaric acid was dissolved in a 90% water and 10% ethanol solution and used to kill Bacillus subtilis spores. […] Sporicidal capabilities of diperglutaric acid were tested at various concentrations. These procedures called for a 30-minute treatment of Bacillus subtilis spores heat fixed to glass slides. Glass slides were cut in half lengthwise. A suspension of spores, obtained from Steris Corporation of Mentor, Ohio (order #Na026) in 10% bovine serum albumin (as a simulated organic load) was prepared at a concentration of 1.2×10^8 spores per mL. 100 μL of this suspension was heat-fixed to each glass slide. These slides were immersed in the following dilutions of the diperglutaric acid: 2%, 1%, 0.3%, 0.1%, and 0.03%.
Control slides were treated in glutaric acid: 2% and 1% in a 10% ethanol/water solution. All treatment concentrations were tested in duplicate. The spore coupons were immersed in 30 ml of test solution for 30 minutes. Following the treatment, the slides were rinsed in sterile water to remove residual acid. Each slide was then placed in a sterile 15-ml test tube containing 2 ml of sterile water. These tubes were sonicated for one hour to resuspend all spores. The sonicated slides were removed from the test tubes. The remaining solutions were serially diluted, plated in duplicate on nutrient agar and incubated for 18-24 hours at 37° C.
The control values (pre-disinfection counts) were obtained from spore carriers immersed in sterile distilled water for 30 minutes prior to rinsing, recovery, and enumeration. The average log10 recovery from these controls was log106.69 per carrier. This compares favorably with the initial number of spores added, which was log107.08. The number of viable spores recovered was 40% of the number initially applied. […] Losses of 90% or less are generally considered acceptable in this type of experiment. […] A log reduction of less than log100.5cfu/carrier was achieved. Thus, the unreacted parent carboxylic acid has little effect on spores. […] Even at a concentration of 0.33%, the diperglutaric acid's effect on spores was similar to that of 2% glutaraldehyde.

[2] = concentrated peracid solution; cited from earlier work
[3] = 2.0% freshly prepared glutaraldehyde preparation

## O=C(CCCC(=O)OO)OO [Diperglutaric acid, diperglutaric acid]
[1]
  limit of solubility in water: 10 % wt/v
Escherichia coli; 0.033%
  Diameter of Zones of Inhibition: 10 mm, 10 mm
Escherichia coli; 1% in water
  Diameter of Zones of Inhibition: 12 mm and 13 mm
Psuedomonas aeruginosa; 0.033%
  Diameter of Zones of Inhibition: 10 mm and 11 mm
Psuedomonas aeruginosa; 1% in water
  Diameter of Zones of Inhibition: 12 mm, 12 mm
Staphylococcus aureus; 0.033%
  Diameter of Zones of Inhibition: 10 mm and 9 mm
Staphylococcus aureus; 1% in water
  Diameter of Zones of Inhibition: 13 mm, 13 mm
E. coli
  Log10 reduction (cfu/6 mm diameter sample): 7.44 log10
P. aeruginosa
  Log10 reduction (cfu/6 mm diameter sample): 7.53 cfu/6 mm diameter sample
S. aureus
  Log10 reduction (cfu/6 mm diameter sample): 8.11 cfu/6 mm diameter sample
Bacillus subtilis spores; 0.033% in 10% EtOH, 30 minutes
  Average log10 postdisinfection count (cfu/coupon): 4.99 cfu/coupon
  Average log10 reduction (cfu/coupon): 1.70 cfu/coupon
Bacillus subtilis spores; 0.1% in 10% EtOH, 30 minutes
  Average log10 postdisinfection count (cfu/coupon): 4.72 cfu/coupon
  Average log10 reduction (cfu/coupon): 1.97 cfu/coupon
Bacillus subtilis spores; 0.33% in 10% EtOH, 30 minutes
  Average log10 postdisinfection count (cfu/coupon): 3.57 cfu/coupon
  Average log10 reduction (cfu/coupon): 3.12 cfu/coupon
  Log10 post-disinfection count (cfu/coupon): 3.62 cfu/coupon and 3.52 cfu/coupon
Bacillus subtilis spores; 1% and 2% for 30 minutes
  viable spores recovered from carriers: no viable spores were recovered
Bacillus subtilis spores; 1.0% in 10% EtOH, 30 minutes
  Average log10 postdisinfection count (cfu/coupon): <1.0 cfu/coupon
  Average log10 reduction (cfu/coupon): 6.69 cfu/coupon
Bacillus subtilis spores; 2.0% in 10% EtOH, 30 minutes
  Average log10 postdisinfection count (cfu/coupon): <1.0 cfu/coupon
  Average log10 reduction (cfu/coupon): 6.69 cfu/coupon

## O=CCCCC=O [Glutaraldehyde, reference compound]
Bacillus subtilis spores; [3]
  Average log10 postdisinfection count (cfu/coupon): 3.10 cfu/coupon
  Average log10 reduction (cfu/coupon): 3.05 cfu/coupon

## O=C(O)CCCC(=O)O [Glutaric acid, reference compound]
Escherichia coli; 1% in water
  Diameter of Zones of Inhibition: No zone
Psuedomonas aeruginosa; 1% in water
  Diameter of Zones of Inhibition: No zone
Staphylococcus aureus; 1% in water
  Diameter of Zones of Inhibition: No zone
E. coli; predisinfection 7.44
  Log10 postdisinfection count (cfu/6 mm diameter sample): 6.75 cfu/6 mm diameter sample
P. aeruginosa
  Log10 reduction (cfu/6 mm diameter sample): 0.00 cfu/6 mm diameter sample
P. aeruginosa; predisinfection 7.53
  Log10 postdisinfection count (cfu/6 mm diameter sample): 7.57 cfu/6 mm diameter sample
S. aureus
  Log10 reduction (cfu/6 mm diameter sample): 0.63 cfu/6 mm diameter sample
S. aureus; predisinfection 8.11
  Log10 postdisinfection count (cfu/6 mm diameter sample): 7.48 cfu/6 mm diameter sample
Bacillus subtilis spores; 1.0% in 10% EtOH, 30 minutes
  Average log10 postdisinfection count (cfu/coupon): 6.23 cfu/coupon
  Average log10 reduction (cfu/coupon): 0.46 cfu/coupon
  Log10 post-disinfection count (cfu/coupon): 6.26 cfu/coupon and 6.19 cfu/coupon
Bacillus subtilis spores; 2.0% in 10% EtOH, 30 minutes
  Average log10 postdisinfection count (cfu/coupon): 6.26 cfu/coupon
  Average log10 reduction (cfu/coupon): 0.43 cfu/coupon
  Log10 post-disinfection count (cfu/coupon): 6.27 cfu/coupon and 6.24 cfu/coupon
Bacillus subtilis spores; concentrations of 1% and 2% for 30 minutes
  sporicidal effectiveness: not an effective sporicidal agent

## O=C(CCCCC(=O)OO)OO [diperadipic acid]
[2]
  solubility for peracid concentrate solution: not soluble enough to prepare an adequate peracid concentrate solution

## O=C(CCCCCCCCC(=O)OO)OO [dipersebacic acid]
[1]
  limit of solubility in water: 0.1 % wt/v

## O=C(CCCCCCC(=O)OO)OO [dipersuberic acid]
[1]
  limit of solubility in water: 0.8 % wt/v

## O=C(CCC(=O)OO)OO [dipersuccinic acid, reference compound]
[2]
  stability of peracid concentrate: did not form stable peracid concentrates
